These results are taken from patent publication US12709760B2, “KIR 7.1 gene therapy vectors and methods of using the same” (WISCONSIN ALUMNI RESEARCH FOUNDATION, priority 2018, dated 2026).

“Also recorded” adds a separate entry of the source.

The test system of assay [1] is Kir7.1 Trp53Ter protein in CHO-K1 cells. Description: Immunoprecipitation / Western blot of GFP-fused Kir7.1 Trp53Ter protein after read-through. In kind it is cell-based. To be noted: Kir7.1-GFP fusion W53X, NB84-treated cells, anti-GFP. In general terms: A western blot detects proteins with antibodies after separation by electrophoresis.
For assay [2], the system named is Kir7.1 channel in LCA16 iPSC-RPE cells. The experiment in a line: Whole-cell patch clamp of LCA16 patient-derived iPSC-RPE cells. In kind it is cell-based, human. On the procedure: Electrophysiology. Standard whole cell patch clamp on single cells were performed as described^6 Briefly, the tight monolayer of hiPSC-RPE grown on a 6.5 mm transwell was dissociated into a single cell suspension as follows: the medium in which cells were maintained was completely removed and the cells were washed twice with 0NaCMF solution (135 mM NMDG-Cl, 5 mM KCl, 10 mM HEPES, 10 mM Glucose, 2 mM EDTA-KOH and adjusted to pH 7.4 with NMDG free base). The cells were then incubated with 0NaCMF containing papain (2.5 μl/ml), cysteine (0.3 mg/ml), glutathione (0.25 mg/ml) and taurine (0.05 mg/ml) for 45 mins at 37° C. The cells were rinsed with 0NaCMF solution to remove enzymes, resuspended in HEPES-Ringer's (HR) solution [NaCl (135 mM), KCl (5 mM), CaCl2) (1.8 mM), MgCl2 (1 mM), HEPES (10 mM), D-glucose (10 mM), pH 7.4±0.1 with NaOH, prepared in ddH2O], and kept on ice for up to 8 hrs until used for electrophysiological recording.
Single hiPSC-RPE cells with distinct apical processes were chosen for conventional patch clamping. Patch pipettes with a resistance of […] were fabricated from borosilicate capillaries using a pipet puller (P-1000®, Sutter instruments). The glass electrode was then fire polished using a microforge (MF-830®, Narshige). Data acquisition and the holding potential parameters were controlled using the Clampex® software (Axon instruments). Current recorded from the successful patch was amplified using Axopatch 200-B® (Axon Instruments) and filtered at 2 KHz. The signal was digitized using digidata 1400A® (Axon instruments) and analyzed using Clampfit® (Axon Instruments). During patch clamping, HR solution was continuously perfused as an external solution. The patch pipette was filled with solution containing 30 mM KCl, 83 mM K-gluconate, 5.5 mM EGTA-KOH, 0.05 mM CaCl2), 4 mM MgCl2, 10 mM HEPES, pH adjusted to 7.2 with KOH and filtered using the 0.2 μm filter.

Setting [3] is: LCA16 hiPSC-RPE subgroup, 100 or 500 μM NB84.

Turning to `C[C@@H](O)C1O[C@H](O[C@@H]2C(N)C[C@@H](NC(=O)[C@@H](O)CCN)[C@@H](O)C2O[C@@H]2O[C@H](CN)[C@H](O)C2O)[C@@H](N)C(O)[C@@H]1O` (some centres unmarked) [NB84], the “Full-length Kir7.1 protein product” value in assay [1] is on record as “a protein band equivalent to the full-length product was detected; also recorded: partial restoration of the full-length protein product”. In assay [2] (setting [3]), the “Current amplitude rescue in a subpopulation of cells” value was “no rescue in current amplitude” and the “Membrane potential rescue in a subpopulation of cells” value is “rescue of membrane potential to control levels”. Also, in assay [2] (LCA16 iPSC-RPE, 500 μM NB84), the “Enhancement of current by Rb+” value amounted to 10 fold. In assay [2] (LCA16 iPSC-RPE, 500 μM NB84, high external Rb+, −150 mV, n=8), the “Current amplitude upon introduction of Rb+” value is −1562.7±546.7 pA. For the same compound, in assay [2] (LCA16 iPSC-RPE, 500 μM NB84, inward current at −150 mV, n=8), the “Kir7.1 current amplitude, normal external K+” value is recorded as −94.3±24 pA. Besides, the Membrane potential in assay [2] (LCA16 iPSC-RPE, NB84-treated cells, n=10) is on record as −56.3±3.6 mV. The “Resting membrane potential versus control level” value in assay [2] (LCA16 iPSC-RPE, bar graph comparison FIG. 7D) is given as “recovery of LCA16 iPSC-RPE to control level”.
